Laboratory results reported in patent US8128802B2, “Analysis apparatus and analysis method for glycosylated hemoglobin” (OJI Paper Co., Ltd, priority 2005, dated 2012).

How the values were obtained:
Format in all cases: biochemical
[1] = system: fructosyl amino acid oxidase; experiment: Substrate specificity of fructosyl amino acid oxidase-immobilized column (Example 3); conditions: buffers pH 8.0; for Relative response value: normalized to 100 for the response to fructosyl glycine, 37° C., dialysis module
Excerpt: The buffer was removed as far as possible. […] The support immobilized enzyme was packed into the column (internal diameter: 3.5 mm, length: 30 mm) to give the fructosyl amino acid oxidase-immobilized column. In the assay apparatus shown in FIG. 2, the flow type calorimeter (16), the protease-immobilized column (14) and the first immobilized enzyme column (17) were not disposed, and the electrode for glucose was placed in the electrode for hydrogen peroxide (18), the fructosyl amino acid oxidase-immobilized column in the second immobilized enzyme column (19), and the electrode for hydrogen peroxide in the electrode for hydrogen peroxide (20). The buffer B was pumped out from the buffer tank (24) using the pump (25), and a 100 μL portion of the sample was injected using the valve (4). […] Since the buffer A was pumped out from the buffer tank (1) by the pump (2), the components with low molecular weight in the sample dialyzed in the dialysis module (27) passed through the electrode for glucose (18), the fructosyl amino acid oxidase-immobilized column (19) and the electrode for hydrogen peroxide (20), and hydrogen peroxide from glucose and fructosyl amino acid in the sample was detected. […] The temperature in the incubator was 37° C. The substrate specificity of fructosyl amino acid oxidase-immobilized column for various fructosyl amino acids, fructosyl peptides, amino acids and sugars was examined using the assay apparatus mentioned in (4) when pH of the buffers was 8.0.

[2] = system: fructosyl peptide oxidase; experiment: Substrate specificity of fructosyl peptide oxidase-immobilized column (Example 4); conditions: buffer A pH 7.0; for Relative response value: normalized to 100 for the response to fructosyl valine, 30° C.
Experimental: In the same way as described in Example 1 (1), 150 mg of firebrick powder (30 to 60 meshes) was formylated. The solution (200 μL) of fructosyl peptide oxidase (140 units/mL, from Kikkoman Co.) in 100 mM sodium phosphate buffer (pH 7.0) was contacted with the formylated firebrick powder, and then incubated at 0 to 4° C. for one day for the enzyme immobilization.
In the assay apparatus shown in FIG. 1, the protease-immobilized column (14), the flow type calorimeter (16) and the first immobilized enzyme column (17) were not disposed, and the electrode for glucose was placed in the electrode for hydrogen peroxide (18), the fructosyl peptide oxidase-immobilized column in the second immobilized enzyme column (19), and the electrode for hydrogen peroxide in the electrode for hydrogen peroxide (20). The buffer A was pumped out from the buffer tank (1) by the pump (2), and a 5 μL portion of the sample was injected using the valve (4). The injected sample transferred with the flowing buffer A, passed through the mixing coil (15) in the incubator (13), and thus the sample temperature was adjusted and the sample was mixed with the buffer. And then the sample passed through the downstream electrode for glucose (18), fructosyl peptide oxidase-immobilized column (19) and an electrode for hydrogen peroxide (20), hydrogen peroxide was produced from fructosyl valylhistidine in the sample, and the change of the current was detected.
The composition of the buffer A for the assay apparatus contained 100 mM phosphoric acid, 50 mM potassium chloride and 1 mM sodium azide, and its pH was 7.0.
(§1) The flow rate of the buffer was 1.0 mL/minute, and the temperature in the incubator was 30° C.
On fructosyl peptide oxidase-immobilized column, the substrate specificity for various fructosyl amino acids, fructosyl peptides, amino acids and sugars was examined using the assay apparatus mentioned in (4) when pH of the buffer A was 7.0. In the Table 4, the relative values were normalized to 100 for the response to fructosyl valine.

[3] = system: fructosyl peptide oxidase; experiment: Substrate specificity, pH profile and stability of fructosyl peptide oxidase-immobilized column (Example 1); conditions: for Relative activity (%) pH 6.0: buffer pH 6.0; for Relative activity (%) pH 6.0 / Relative activity (%) pH 7.0 / Relative activity (%) pH 8.0: normalized to 100 for the response to fructosyl valine at each pH, 30° C.; for Relative activity (%) pH 7.0: buffer pH 7.0; for Relative activity (%) pH 8.0: buffer pH 8.0
Experimental: Firebrick powder (150 mg, 30 to 60 meshes) was thoroughly dried, immersed in a 10% solution of γ-aminopropyltriethoxysilane in anhydrous toluene for one hour, then thoroughly washed with anhydrous toluene and dried. The aminosilane-modified support was immersed in a 5% aqueous glutaraldehyde solution for one hour, and then thoroughly washed with distilled water, followed by substitution with 100 mM sodium phosphate buffer (pH 7.0). The buffer was removed as far as possible. A solution ([…]) of fructosyl peptide oxidase (140 units/mL, from Kikkoman Co.) in 100 mM sodium phosphate buffer (pH 7.0) was contacted with the formylated firebrick powder, and then incubated at 0 to 4° C. for one day for the enzyme immobilization. The support immobilized enzyme was packed into a column (internal diameter: 3.5 mm, length: 30 mm) to give the fructosyl peptide oxidase-immobilized column.
The buffer was pumped out from a buffer tank (1) using a pump (2), and 5 μL of a sample was injected using a valve (4). A protease-immobilized column (14), a flow type calorimeter (16), a second immobilized enzyme column (19) and a second electrode for hydrogen peroxide (20) were not placed, and a fructosyl peptide oxidase-immobilized column was placed as a first immobilized enzyme column (17), followed by an electrode for hydrogen peroxide (18) downstream thereof. The injected sample transferred with the flowing buffer, passed through a mixing coil (15) inside an incubator (13), and thus the sample temperature was adjusted and the sample was mixed with the buffer. The sample passed through the fructosyl peptide oxidase-immobilized column (17) and the electrode for hydrogen peroxide (18) to produce hydrogen peroxide from fructosyl valylhistidine in the sample, and then the change of the current was detected.
A composition of the buffer used in this assay apparatus contained 100 mM phosphoric acid, 50 mM potassium chloride and 1 mM sodium azide, and its pH was 7.0.
as §1
Using the assay apparatus described in (3), a 5 μL portion of fructosyl glycine, fructosyl valine or fructosyl valylhistidine was injected, and the characteristics of the fructosyl peptide oxidase-immobilized column was examined.
When pH of the buffer was 6.0, 7.0 or 8.0, the assay results of the activity for the oxidation of fructosyl glycine (FG), fructosyl valine (FV) or fructosyl valylhistidine (FVH) were shown in FIG. 3. For fructosyl glycine the activity was high at pH 8.0, but the activity at pH 6.0 was decreased to about 50% of that at pH 8.0. For fructosyl valine and fructosyl valylhistidine, the activity was high at pH 6.0 and 7.0.
Response values in Table 1 were normalized to 100 for the response to fructosyl valine at each pH.

[4] = system: fructosyl amino acid oxidase; experiment: Characteristics of fructosyl amino acid oxidase-immobilized column (Example 5); conditions: buffer pH 8.0, 37° C.
Experimental: FIG. 1 was the flow type assay apparatus with one flow path. The buffer A was pumped out from the buffer tank (1) using the pump (2), and a 5 μL portion of the sample was injected using the valve (4). The fructosyl amino acid oxidase-immobilized column was placed in the first immobilized enzyme column (17) and the electrode for hydrogen peroxide was placed downstream. The second immobilized enzyme column (19), the second electrode for hydrogen peroxide (20), the protease-immobilized column (14) and the flow type calorimeter (16) were not disposed. The injected sample transferred with the flowing buffer, passed through the mixing coil (15) in the incubator (13), and thus the sample temperature was adjusted and the sample was mixed with the buffer. The sample passed through the fructosyl amino acid oxidase-immobilized column (17) and the electrode for hydrogen peroxide (18), hydrogen peroxide was produced from fructosyl valine in the sample, and the change of the current was detected.
The composition of the buffer for this assay apparatus contained 100 mM phosphoric acid, 50 mM potassium chloride and 1 mM sodium azide, and its pH was 8.0.
The flow rate of the buffer was 1.0 mL/minute, and the temperature in the incubator was 37° C.
Using the assay apparatus 1 mentioned in (3), a 5 μL portion of fructosyl glycine was injected, and the characteristics of the fructosyl amino acid oxidase-immobilized column was examined.
When pH in the buffer was 7.0, 7.5, 8.0, 8.5 or 9.0, the activity in the oxidation of fructosyl glycine was measured.

Relative response value [1] | Relative response value [2] | Relative activity (%) pH 6.0 [3] [%] | Relative activity (%) pH 7.0 [3] [%] | Relative activity (%) pH 8.0 [3] [%] | Relative activity (%) ([4]; sample concentration 10 mM) | SMILES | response of fructosyl peptide oxidase-immobilized column (in words) [2] | response of fructosyl peptide oxidase-immobilized column (in words) ([3]; at any pH (6.0, 7.0, 8.0)) | Relative activity (%) ([4]; sample concentration 0.1 mM) | response of fructosyl amino acid oxidase-immobilized column [1] | pH at which activity was maximized ([3]; buffer pH 6.0, 7.0 or 8.0 tested)
0.0 | 0.0 | 0 | 0 | 0 | 0.0 | O=C[C@H](O)[C@@H](O)[C@H](O)CO [Xylose] | – | – | – | – | –
– | – | – | – | – | 507.0 | N[C@@H](CS)C(=O)O [Cys] | – | – | – | – | –
0.0 | 0.0 | 0 | 0 | 0 | 41.0 | NCCCC[C@H](N)C(=O)O [Lys] | – | – | – | – | –
0.0 | 0.0 | 0 | 0 | 0 | 0.0 | CC(C)C[C@H](N)C(=O)O [Leu] | – | – | – | – | –
0.0 | 0.0 | 0 | 0 | 0 | 0.0 | O=C[C@H](O)[C@@H](O)[C@@H](O)[C@H](O)CO [Galactose] | – | – | – | – | –
0.0 | 0.0 | 0 | 0 | 0 | 0.0 | NC(=O)C[C@H](N)C(=O)O [Asn] | – | – | – | – | –
0.0 | 0.0 | 0 | 0 | 0 | 2.0 | O=C(O)[C@@H]1CCCN1 [Pro] | – | – | – | – | –
0.0 | 0.0 | 0 | 0 | 0 | 1.0 | O=C(CO)[C@@H](O)[C@H](O)[C@H](O)CO [Fructose] | – | – | – | – | –
0.0 | 0.0 | 0 | 0 | 0 | 0.0 | NCC(=O)O [Gly] | – | – | – | – | –
0.0 | 0.0 | 0 | 0 | 0 | 0.0 | N[C@@H](Cc1ccccc1)C(=O)O [Phe] | – | – | – | – | –
0.0 | 0.0 | 0 | 0 | 0 | 13.0 | N[C@@H](Cc1c[nH]c2ccccc12)C(=O)O [Trp] | – | – | – | – | –
0.0 | 0.0 | 0 | 0 | 0 | 0.0 | OCC(O)CO [Glycerol] | – | – | – | – | –
0.0 | 0.0 | 0 | 0 | 0 | 0.0 | N[C@@H](CC(=O)O)C(=O)O [Asp] | – | – | – | – | –
0.0 | 0.0 | 0 | 0 | 0 | 0.0 | N[C@@H](Cc1c[nH]cn1)C(=O)O [His] | – | – | – | – | –
0.0 | 0.0 | 0 | 0 | 0 | 2.0 | C[C@@H](O)[C@H](N)C(=O)O [Thr] | – | – | – | – | –

SMILES | Relative response value [1] | Relative response value [2] | Relative activity (%) pH 6.0 [3] [%] | Relative activity (%) pH 7.0 [3] [%] | Relative activity (%) pH 8.0 [3] [%] | Relative activity (%) ([4]; sample concentration 10 mM) | response of fructosyl peptide oxidase-immobilized column (in words) [2] | response of fructosyl peptide oxidase-immobilized column (in words) ([3]; at any pH (6.0, 7.0, 8.0)) | Relative activity (%) ([4]; sample concentration 0.1 mM) | response of fructosyl amino acid oxidase-immobilized column [1] | pH at which activity was maximized ([3]; buffer pH 6.0, 7.0 or 8.0 tested)
O=C(O)[C@H](CCCCNCC(=O)[C@@H](O)[C@H](O)[C@H](O)CO)NCC(=O)[C@@H](O)[C@H](O)[C@H](O)CO [α, ε-Fructosyl lysine] | 1.1 | 9.9 | 9 | 10 | 11 | – | scarcely responded | scarcely responded | 5.0 | – | –
N=C(N)NCCC[C@H](N)C(=O)O [Arg] | 0.0 | 0.0 | 0 | 0 | 0 | 1.0 | – | – | – | – | –
CC(C)[C@H](NC1(CO)O[C@H](CO)[C@@H](O)[C@@H]1O)C(=O)N[C@@H](Cc1c[nH]cn1)C(=O)O (stereo partly shown) [Fructosyl valyl histidine] | 1.3 | 86.8 | 88 | 87 | 66 | – | – | – | – | scarcely responded | 7.0
